Key:
[1] = system: S. Typhimurium strain 14028; assay: Typhoid fever-mouse model (survival, organ burden); assay type: in vivo, BALB/c mice
Experimental: The bacterial burden in livers and spleens was determined three days after infection (FIG. 5).
Mouse experiments—Infection Experiments. […] Female BALB/c mice (Charles River, Boston, Mass.) were orally inoculated individually with the S. Typhimurium strain ATCC 14028, following previously described methods (Maier et al. 2004 Infect Immun 72:6294-6299; Maier et al. 2014 PLoS One 9:e110187; Lamichhane-Khadka R et al. 2015 Infect Immun 83:311-316). Briefly, S. Typhimurium cells grown overnight in LB were harvested, washed, and suspended in sterile PBS to a final OD of OD600 0.01 (approximately 10^7 CFU/mL) and 0.1-mL volumes (10^6 bacterial cells) were introduced orally into each mouse. […] The mice were observed twice daily, and morbidity was recorded. In addition, a fourth independent experiment was performed to determine organ (liver and spleen) bacterial burdens. In this experiment, two groups of eight mice each were inoculated with S. Typhimurium 14028. […] Infection with S.T. 14028 was done as described above. Mice were euthanized 72 hours after infection. Livers and spleens were removed and homogenized in sterile PBS. Dilutions of the homogenate were plated on bismuth sulfite agar plates (BD DIFCO, Becton Dickinson, Franklin Lakes, N.J.), a selective medium for Salmonella species. Colony forming units (CFU) were counted after overnight incubation of the plates at 37° C.

[2] = system: Helicobacter pylori 43504; assay: Biofilm inhibition assay (crystal violet); assay type: cell-based; details: 48 hours with DMG
Experimental: (§1) Biofilm inhibition assay. S. Typhimurium and K. pneumoniae cultures were adjusted to an optical density (OD600) of 0.1 in fresh LB broth. H. pylori culture was adjusted to an OD600 of 0.15 in brain heart infusion (BHI) supplemented with 0.4% β-cyclodextran. […] Plates containing S. Typhimurium and K. pneumoniae were incubated at 37° C. aerobically without shaking for 18 hours. Plates containing H. pylori were incubated at 37° C. microaerobically without shaking for 48 hours. After incubation with (Na2DMG) a crystal violet biofilm assay was performed as previously described with modifications (Kwasny et al. 2010. Current Protocols in Pharmacology 50:13A. 8.1-13A. 8.23). Briefly, supernatant was removed from the wells. Next, adherent cells were gently washed with phosphate-buffered saline (PBS) and allowed to air dry for 15 minutes. Cells were then heat fixed for one hour at 60° C. before staining with 0.5% crystal violet for 5 minutes. After the crystal violet was thoroughly washed from the wells with distilled deionized water, cells were air dried for 15 minutes. Acetic acid (33%) was then added to the wells to solubilize the crystal violet. The crystal violet-acetic acid solution was transferred to a clean 96 well plate and the OD600 was measured.

[3] = system: Klebsiella pneumoniae ATCC BAA2472; assay: Biofilm inhibition assay (crystal violet); assay type: cell-based; details: 18 hours with DMG
Experimental: as §1

[4] = system: MDR K. pneumoniae (ATCC BAA2472); assay: DMG growth inhibition in liquid culture (CFU/mL); assay type: cell-based, Klebsiella pneumoniae
Experimental: Growth conditions. All strains were routinely grown on LB agar plates or in LB broth. For DMG-growth inhibition study, S. Typhimurium strains ATCC 14028 and ATCC 700408 were grown in M9 minimal medium (M9 minimal salts, 0.4% glucose, 2 mM MgSO4, 0.1 mM CaCl2), and 1 μg/mL thiamine, pH 7.2). K. pneumoniae was grown in “W-U” medium, modified from Bender et al. 1977 129:1001-1009, containing 60 mM K2HPO4, 33 mM KH2PO4, 0.4 mM MgSO4, 0.4% Glucose, and 5 mM urea (instead of KNO3), pH 7.4. Briefly, overnight cultures of S. Typhimurium and K. pneumoniae were harvested, spun at 14,000 rpm for five minutes, washed once with either M9 (S. Typhimurium) or W-U (K. pneumoniae) and resuspended in either M9 (S. Typhimurium) or W-U (K. pneumoniae). […] Cells were incubated for 24 hours at 37° C. with shaking at 250 rpm, then serially diluted in PBS and 5 μL of each dilution was spotted in triplicate on LB plate. Colony forming units (CFU) were counted after 16 hours at 37° C. Each growth experiment was done at least three times.

Aβ40 peptide = Aβ40 peptide (Homo sapiens, UniProt P05067); assay: Isothermal titration calorimetry; assay type: binding; parameters: purchased rPeptides, Watkinsville, Ga., USA kit #A-1180-1; host or cells: E. coli; details: 1 mM DMG injected instead of nickel; data not shown
From the text: Nickel binding to human recombinant Aβ40 peptide is confirmed by isothermal titration calorimetry. Isothermal titration calorimetry (ITC) has been already used to analyze copper or zinc binding to various Aβ peptides, including Ab40 (Talmard et al. Biochemistry 46, 13658-13666 (2007); Sacco et al. JBIC Journal of Biological Inorganic Chemistry 17, 531-541 (2012); Hatcher et al. The journal of physical chemistry B 112, 8160-8164 (2008)). In the current study, we used ITC to determine whether nickel can bind the Aβ40 peptide. The peptide (same used in ThT-based aggregation assays) was present in the sample cell at a concentration of 20 μM. Twenty injections of NiSO4 (1 mM solution, 5 μM increments in sample cell) were performed every 5 min under constant stirring (350 rpm) at 25° C., and the heat release was measured (FIG. 9). The heat release profile indicates Ni binding to the peptide (FIG. 9, top Panel).
Isothermal Titration Calorimetry. […] Briefly, 1 mg of lyophilized Aβ40 peptide (#A-1157-2, rPeptides) was resuspended with 1% NH4OH to a concentration of 250 μM, sonicated for 15-20 sec, before being diluted to a final concentration of 20 μM Aβ40 using ddH2O and TBS 10×, pH 7.4 (working buffer: NH4OH 0.2%, TBS 1×, pH 7.4 (“NTBS”)). […] All samples were degassed for 15 min at 25° C. before use. Titration was initiated using a program for 20 injections (2.38 μL each, every 5 min) with continuous stirring (350 rpm) at constant temperature (25° C.). ITC data were analyzed using NanoAnalyze 1.2 software (TA Instruments). Data obtained with the control experiment (Aβ40 peptide in sample cell, buffer in syringe) were subtracted from each experiment to account for any injection-related heat change.

[5] = oral 3 mg DMG daily, three-day treatment
[6] = oral DMG 3 mg at 24 h and 30 min before and 24 h post infection, burden three days after infection, n=8

Sequence of Aβ40 peptide (P05067 672-711): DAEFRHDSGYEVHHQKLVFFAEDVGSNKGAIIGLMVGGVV

Q: How did the mortality [1, 5] turn out when `CC(=NO)C(C)=NO` [DMG, dimethylglyoxime] was run?
A: The mortality was 100%.

Q: What about the “postponement of time of death” value [1, 5] of the same compound?
A: The value was “two”.

Q: What about the mouse survival ([1]; oral 3 mg DMG six hours post-infection then daily for nine days, n=4) of the same compound?
A: The mouse survival was 50%.

Q: What about the mouse survival ([1]; oral 3 mg DMG six hours post-infection then daily for seven days, n=8) of the same compound?
A: Its mouse survival is 37.5%.

Q: And the “bacterial colonization of livers vs non-DMG treated group” value [1, 6]?
A: The value was “Significantly lower”.

Q: What about the “bacterial colonization of spleens vs non-DMG treated group” value [1, 6] of the same compound?
A: The value was “Significantly lower”.

Q: And the biofilm formation [2]?
A: The biofilm formation was “able to inhibit biofilm formation”.

Q: What about the biofilm formation [3] of the same compound?
A: Its biofilm formation is “able to inhibit biofilm formation”.

Q: And the “effect on bacterial growth” value ([4]; DMG at 2.5 mM, 5 mM, or 7.5 mM)?
A: Its value is “no measurable effect”.

Q: What about the inhibition at 10000 µM ([4]; Klebsiella pneumoniae, ATCCBAA2472, 24 h) of the same compound?
A: The inhibition at 10000 µM was > 100%.

Q: What about the “binding to Aβ40 peptide (ITC)” value (Aβ40 peptide) of the same compound?
A: The value was “cannot bind to the peptide”.
